In brackets after ≈: the same amount, converted by molar mass.
Legend:
Type in all cases: cell-based
[1] = system: MCF cells (breast cancer cells); assay: MTT cytotoxicity assay, MCF cells; details: 200 μM, 48 h
Procedure: (§1) In addition, when HeLa and MCF cells (breast cancer cells) were exposed to 200 μM pavetamine for 48 h, 30% cell death occurred for HeLa cells and 25% for the MCF cells. The MTT (3-(4,5-dimethyl-2-thiazolyl)-2,5-diphenyl-2H-tetrazolium bromide) assay (Sigma, St Louis, USA) was used to measure the cytotoxicity of pavettamine in these cell lines.

human lymphocytes = assay: toxicity to human lymphocytes (IC50); details: Lymphocyte
[2] = system: Bordetella bronchiseptica; assay: growth inhibition of bacterial cells
Excerpt: (§2) This selective inhibition of the growth of eukaryotes versus prokaryotes is a useful characteristic of the compound.

Pasteurella haemolytica = assay: growth inhibition of bacterial cells
Excerpt: as §2

[3] = system: Staphylococcus intermedius; assay: growth inhibition of bacterial cells; details: Staphylococcus intermedius (3 strains)
Excerpt: as §2

[4] = system: Sphingobacterium spritivorum; assay: growth inhibition of bacterial cells
Excerpt: as §2

Actinomyces pyogenes = assay: growth inhibition of bacterial cells
Excerpt: as §2

Aspergillus clavatus = assay: growth inhibition of fungal and yeast cells
Excerpt: as §2

Penicillium expansum = assay: growth inhibition of fungal and yeast cells
Excerpt: as §2

Debaryomyces hansenii = assay: growth inhibition of fungal and yeast cells
Excerpt: as §2

Rhodotorula mucilaginosa = assay: growth inhibition of fungal and yeast cells
Excerpt: as §2

HeLa cells = assay: MTT cytotoxicity assay, HeLa cells; details: 200 μM, 48 h
Procedure: as §1

HeLa cancer cells = assay: activity against HeLa cancer cells (toxicity, IC50)
[5] = system: Selenastrum capricornumtum; assay: algal growth inhibition test; details: 1 mM to 0.063 mM, 72 hrs exposure, optical density relative to control
Procedure: The algal (Selenastrum capricornumtum) growth inhibition test involves exposing the unicellular algae to the toxicant for 72 hrs, under defined conditions: at a temperature of 24° C. and in a test facility fitted with a cool white fluorescent light with a light intensity of ±4000 lux. The test facility is free of vapour, odours and dust which may be toxic to the algae.
Growth inhibition is measured as a reduction in growth rate relative to the control and is determined in terms of optical density. Definitive tests (testing serial dilutions) are carried out. The percentage growth inhibition in each test is usually reported as Effect or the 72 hr EC20 or EC50.

With `NC[C@@H](O)C[C@@H](O)CNC[C@H](O)C[C@H](O)CN` [pavettamine, (2S,4R,8R,10S)-1,11-diamino-6-aza-undecane-2,4,8,10-tetraol] the “cell death, MCF cells” value [1] was 25%, the IC50 (human lymphocytes) was 2 µg/mL (≈ 7.96 µM) and the “inhibitory activity towards growth of bacterial cells” value [2] was “no inhibitory activity”. The “inhibitory activity towards growth of bacterial cells” value (Pasteurella haemolytica) was “no inhibitory activity”, the “inhibitory activity towards growth of bacterial cells” value [3] was “no inhibitory activity” and the “inhibitory activity towards growth of bacterial cells” value [4] was “no inhibitory activity”. For the same compound, the “inhibitory activity towards growth of bacterial cells” value (Actinomyces pyogenes) was “no inhibitory activity”, the “inhibitory activity towards growth of fungal and yeast cells” value (Aspergillus clavatus) was “inhibitory activity” and the “inhibitory activity towards growth of fungal and yeast cells” value (Penicillium expansum) was “inhibitory activity”. For the same compound, the “inhibitory activity towards growth of fungal and yeast cells” value (Debaryomyces hansenii) was “inhibitory activity”, the “inhibitory activity towards growth of fungal and yeast cells” value (Rhodotorula mucilaginosa) was “inhibitory activity” and the “cell death, HeLa cells” value (HeLa cells) was 30%. The “times more toxic to HeLa cancer cells than to human lymphocytes” value (HeLa cancer cells; HeLa cancer cells versus human lymphocytes) was 10 ×, the IC50 (HeLa cancer cells; Homo sapiens, HeLa) was 0.2 µg/mL (≈ 0.796 µM) and the “growth inhibition of algae” value [5] was ≥ 98%.

— US20110251289A1, “NEW COMPOUNDS FOR THE TREATMENT OF CANCER” (CSIR, priority 2008, published 2011)
